From patent US5314999A, “Derivatives of basic polyene macrolides and their preparation” (Laboratoires Mayoly-Spindler, priority 1989, dated 1994)
Where two headings read alike, the source gives them in different places.

Assays:
Type in all cases: cell-based
[1] = system: Candida albicans; assay: Growth inhibition in liquid medium (Sabouraud broth); conditions: Sabouraud broth, 28° C., 18 hours, read-out: IC 50 (growth-inhibiting concentration of 50%)
Procedure: (§1) A.1 : Study of the antibiotic efficiency of AmB derivatives in liquid medium against different yeasts
(§2) The antibiotic efficiency was tested by the growth inhibition method in liquid medium (Sabouraud broth) in the presence of different concentrations of the derivatives studied.
(§3) A yeast suspension was cultivated in a broth in such a manner that about 1×10^2 cell/ml were obtained.
(§4) The tubes containing the different concentrations of antifungal substance were inoculated with the same amount of yeast cells, and were then incubated at 28° C. for 18 hours with stirring. For each concentration of antifungal substance, two identical tubes were prepared.
(§5) The inhibition of fungal growth corresponding to the different concentrations was evaluated for each molecule by spectrophotometry at 620 nm and expressed in percent with respect to a reference solution without antifungal substance.

[2] = system: Saccharomyces cerevisiae; assay: as above; conditions: Sabouraud broth, 28° C., 18 hours, read-out: IC 50 (growth-inhibiting concentration of 50%)
Procedure: as §1, §2, §3, §4, §5

[3] = system: Aspergillus flavus; assay: Diffusion method in agar-agar medium (Sabouraud agar-agar); conditions: Sabouraud agar-agar, disc diameter 1 cm, 0.1 ml
Procedure: (§6) A.2 : Study of the antibiotic efficiency of amphotericine B derivatives in agar-agar medium against Aspergillus
(§7) The antibiotic activity was tested by the diffusion method in agar-agar medium (Sabouraud agar-agar).
(§8) The efficiency of each molecule was determined by the size of the growth-inhibiting zone around a WHATMAN 3M paper disc impregnated with the antibiotic substance of a given concentration.
(§9) A suspension of Aspergillus spores in a broth was prepared, 0.2 ml of this suspension was used to inoculate at its surface an agar-agar medium which was solidified in such a manner that a homogeneous growth layer was obtained. After spreading, the WHATMAN 3M paper discs (diameter: 1 cm) were placed on the surface of the agar-agar, and then impregnated with 0.1 ml of the antibiotic substance at different concentrations.

[4] = system: Aspergillus fumigatus; assay: as above; conditions: Sabouraud agar-agar, disc diameter 1 cm, 0.1 ml
Procedure: as §6, §7, §8, §9

[5] = system: red corpuscles; assay: Toxicity on red corpuscles (lysis), mice; conditions: 37° C., 1 hour 30, 90 min, read-out: LD 50 (dose which leads to lysis in 50% of the erythrocytes)
Procedure: (§10) B.1: Study of the toxicity on red corpuscles
(§11) All the solutions of the AmB derivatives according to the invention were prepared immediately before use by diluting 4 mg of substance in 100 μl of 5% glucose solution, and then, after 15 minutes protected from light, 100 μl of sterile distilled water are added, and the mixture is made up to stock solutions of 4 mg/ml with a 5% glucose solution. For comparative study of the effects of AmB, 4 mg of FUNGIZONE are diluted with 1 ml of 5% glucose.
(§12) The cells are prepared by placing 1 ml of a peripheral blood sample into a tube together with Ficollhypaque to remove the lymphocytes, and then centrifuging the mixture at 2000 rpm for 20 minutes. The remaining red corpuscles are recovered, washed once with 0.9% NaCl and then twice with 150 Mm KCl, 0.5 Mm tris-HCl, pH 7.4.
(§13) A 1.25% suspension is then prepared with 150 mM KCl solution, 0.5 mM tris-HCl, pH 7.4, and 150 μl thereof are distributed in wells along with 50 μl of each of the dilutions of the derivatives, plus a control well (5% glucose solution).
(§14) The cells are then incubated at 37° C. in a steam cabinet for 1 hour 30.
(§15) To evaluate the cell lysis, haemoglobin is essayed by removing 100 μl of the supernatant in each well and diluting the sample with 1 ml of distilled water.
(§16) The haemoglobin concentration is calculated by measuring the optical density at 540 nm and taking into account the absorption of the derivatives of amphotericine B.
(§17) LD 50 is the dose which leads to lysis in 50% of the erythrocytes (a control of 100% lysis is obtained with distilled water, and reference lysis of 0% is obtained with the 5% glucose solution).

[6] = system: thymocytes; assay: Toxicity on nucleated cells, mice thymocytes; conditions: 1 hour 30, trypan blue, 90 min, read-out: LD 50 (concentration leading to a mortality of 50%)
[7] = system: X 63 (mice lymphoma B); assay: Toxicity on nucleated cells, X 63 mice lymphoma B; conditions: 1 hour 30, trypan blue, 90 min, read-out: LD 50 (concentration leading to a mortality of 50%)
[8] = system: PBL; assay: Toxicity on nucleated cells, human PBL; conditions: human PBL, 1 hour 30, trypan blue; 90 min; read-out: LD 50 (concentration leading to a mortality of 50%)
Procedure: (§18) B.2: Study of the toxicity on nucleated cells
(§19) The solutions of the amphotericine B derivatives are prepared similarly to those mentioned in paragraph B.1.
(§20) The cells are prepared by placing 20 ml of blood diluted to 1/2 with 0.9% NaCl into a tube together with 10 ml of Ficoll-hypaque, and the mixture is centrifuged at 2000 rpm for 30 minutes. The cell nuclei are recovered and washed twice with PBS buffer containing 5% of foetal calf serum.
(§21) The cells are prepared by suspending 1.14×10^6 cells/ml in RPMI 1640 containing 2.5% of foetal calf serum and by filling each well with 150 μl. 50 μl of each dilution of the derivatives are added and also one control (5% glucose solution).
(§22) The cells are then incubated in a steam cabinet at a CO2 concentration of 5% for 1 hour 30 at 37° C. or at ambient temperature.
(§23) To evaluate the toxicity of the derivatives, a cell count in the presence of trypan blue is made, and the LD 50 (concentration of the derivative leading to a mortality of 50%) is calculated with respect to the control (5% glucose solution) for each concentration of each derivative.

[9] = system: red corpuscles; assay: Toxicity on red corpuscles (lysis), human; conditions: 37° C., 1 hour 30, 90 min, 90 min, read-out: LD 50 (dose which leads to lysis in 50% of the erythrocytes)
Procedure: as §10, §11, §12, §13, §14, §15, §16, §17

[10] = system: DAUDI (human lymphoma B); assay: Toxicity on nucleated cells, DAUDI human lymphoma B; conditions: 1 hour 30, trypan blue, 90 min, read-out: LD 50 (concentration leading to a mortality of 50%)
[11] = system: Cryptoccocus neoformans; assay: Growth inhibition in liquid medium (Sabouraud broth); conditions: Sabouraud broth, 28° C., 18 hours; read-out: IC 50 (growth-inhibiting concentration of 50%)
Procedure: as §1, §2, §3, §4, §5

[12] = system: Pytirosporum orbiculare; assay: as above; conditions: Sabouraud broth, 28° C., 18 hours; read-out: IC 50 (growth-inhibiting concentration of 50%)
Procedure: as §1, §2, §3, §4, §5

[13] = Toxicity on nucleated cells, mice T lymph gland cells; conditions: mouse, 1 hour 30, trypan blue, read-out: LD 50 (concentration leading to a mortality of 50%)
Procedure: as §18, §19, §20, §21, §22, §23

[14] = Toxicity on nucleated cells, mice B lymph gland cells; conditions: mouse, 1 hour 30, trypan blue, read-out: LD 50 (concentration leading to a mortality of 50%)
Procedure: as §18, §19, §20, §21, §22, §23

[15] = Toxicity on nucleated cells, mice thymocytes; conditions: mouse, thymocytes, 1 hour 30, trypan blue, read-out: LD 50 (concentration leading to a mortality of 50%)
[16] = Toxicity on nucleated cells, human bone marrow; conditions: 1 hour 30, trypan blue, read-out: LD 50 (concentration leading to a mortality of 50%)
Procedure: as §18, §19, §20, §21, §22, §23

[17] = Toxicity on nucleated cells, human thymocytes; conditions: 1 hour 30, trypan blue, read-out: LD 50 (concentration leading to a mortality of 50%)
Procedure: as §18, §19, §20, §21, §22, §23

Compound	IC50 [1] [µM]	IC50 [2] [µM]	concentration giving a growth inhibition of 1 cm around a disc in solid medium [3]	concentration giving a growth inhibition of 1 cm around a disc in solid medium [4]	HC50 [5] [µM]	CC50 [6] [µM]	CC50 [7] [µM]	CC50 [8] [µM]	HC50 [9] [µM]	CC50 [10] [µM]	IC50 [11] [µM]	HC50 ([5]; 90 min) [µM]	IC50 ([1]; Candida albicans, 18 h) [µM]	IC50 [12] [µM]	IC50 ([2]; Saccharomyces cerevisiae, 18 h) [µM]	CC50 at 1.5 h [13] [µM]	CC50 at 1.5 h [14] [µM]	CC50 at 1.5 h [15] [µM]	CC50 at 1.5 h [16] [µM]	CC50 at 1.5 h [17] [µM]
C[C@@H]1[C@H](O)[C@@H](C)/C=C/C=C/C=C/C=C/C=C/C=C/C=C/[C@H](O[C@@H]2O[C@H](C)[C@@H](O)[C@H](NCC3(O)O[C@H](C(N)=O)[C@@H](O)[C@@H]3O)[C@@H]2O)C[C@@H]2O[C@](O)(C[C@@H](O)C[C@@H](O)[C@H](O)CC[C@@H](O)C[C@@H](O)CC(=O)O[C@H]1C)C[C@H](O)[C@H]2C(=O)O (stereo partly drawn) [AmB 12 G, 1-amino-1-deoxy-D-arabinoglucuronamidyl-AmB]	0.1	0.62	9 × 10^-5 molarity	1 × 10^-4 molarity	20	5	500	46	30	> 300	–	–	–	–	–	–	–	–	–	–
CC1OC[C@@H](O)[C@H]([C@H](O)C(=O)CN[C@@H]2[C@H](O)[C@H](O[C@H]3/C=C/C=C/C=C/C=C/C=C/C=C/C=C/[C@H](C)[C@@H](O)[C@@H](C)[C@H](C)OC(=O)C[C@H](O)C[C@H](O)CC[C@@H](O)[C@H](O)C[C@H](O)C[C@]4(O)C[C@H](O)[C@@H](C(=O)O)[C@H](C3)O4)O[C@H](C)[C@H]2O)O1 (stereo partly drawn) [AmB 22 G, 1-deoxy-1-amino-4,6-O-ethylidene-D-fructosyl-AmB]	0.09	1.2	9 × 10^-5 molarity	1 × 10^-4 molarity	–	5	400	30	50	700	0.12	10	–	–	–	–	–	–	–	–
C[C@@H]1[C@H](O)[C@@H](C)/C=C/C=C/C=C/C=C/C=C/C=C/C=C/[C@H](O[C@@H]2O[C@H](C)[C@@H](O)[C@H](NCC(=O)[C@@H](O)[C@@H]3OC(c4ccccc4)OC[C@H]3O)[C@@H]2O)C[C@@H]2O[C@](O)(C[C@@H](O)C[C@@H](O)[C@H](O)CC[C@@H](O)C[C@@H](O)CC(=O)O[C@H]1C)C[C@H](O)[C@H]2C(=O)O (stereo partly drawn) [AmB 20 G, 1-deoxy-1-amino-4,6O-benzylidene-D-fructosyl-AmB]	0.1	1	6 × 10^-4 molarity	1.3 × 10^-4 molarity	–	4	150	30	80	500	0.06	4	–	–	–	–	–	–	–	–
C[C@@H]1[C@H](O)[C@@H](C)/C=C/C=C/C=C/C=C/C=C/C=C/C=C/[C@H](O[C@@H]2O[C@H](C)[C@@H](O)[C@H](NCC3(O)O[C@H](C(=O)O)[C@@H](O)[C@@H]3O)[C@@H]2O)C[C@@H]2O[C@](O)(C[C@@H](O)C[C@@H](O)[C@H](O)CC[C@@H](O)C[C@@H](O)CC(=O)O[C@H]1C)C[C@H](O)[C@H]2C(=O)O (stereo partly drawn) [AmB 17 F, 1-amino-1-deoxy-D-arabinoglucuronyl-AmB]	–	–	2 × 10^-4 molarity	2 × 10^-4 molarity	–	–	> 1000	> 1000	200	> 1000	0.15	30	0.13	0.09	1.4	20	150	8	> 1000	> 300
C[C@@H]1[C@H](O)[C@@H](C)/C=C/C=C/C=C/C=C/C=C/C=C/C=C/[C@H](O[C@@H]2O[C@H](C)[C@@H](O)[C@H](NCC3(O)O[C@H](C(=O)O)[C@@H](O)[C@@H]3O)[C@@H]2O)C[C@@H]2O[C@](O)(C[C@@H](O)C[C@@H](O)[C@H](O)CC[C@@H](O)C[C@@H](O)CC(=O)O[C@H]1C)C[C@H](O)[C@H]2C(=O)O (stereo partly drawn) [AmB 17 G, 1-amino-1-deoxy-D-arabinoglucuronyl-AmB]	–	0.86	9 × 10^-5 molarity	3.5 × 10^-5 molarity	–	5	150	10	50	300	0.06	10	–	–	–	–	–	–	–	–
CC(=O)NC[C@H]1OC(O)(CN[C@@H]2[C@H](O)[C@H](O[C@H]3/C=C/C=C/C=C/C=C/C=C/C=C/C=C/[C@H](C)[C@@H](O)[C@@H](C)[C@H](C)OC(=O)C[C@H](O)C[C@H](O)CC[C@@H](O)[C@H](O)C[C@H](O)C[C@]4(O)C[C@H](O)[C@@H](C(=O)O)[C@H](C3)O4)O[C@H](C)[C@H]2O)[C@@H](O)[C@@H]1O (some centres unmarked) [AmB 23 G, 6-deoxy-6-N-acetyl-1-deoxy-1-amino-fructosyl-AmB]	–	1	5 × 10^-4 molarity	9 × 10^-5 molarity	–	2.5	500	8	1	300	0.17	4	–	–	–	–	–	–	–	–
